For three compounds, IC50 results are on record in paper PMC4774911, “Biochemical Screening of Five Protein Kinases from Plasmodium falciparum against 14,000 Cell-Active Compounds” (PLoS ONE, 2016).

For orientation: pIC50 means the negative decadic logarithm of the IC50, by convention in mol/L. A lower pIC50 goes with a large IC50.

pIC50: −log10 of the molar value. Values joined by “and” are separate entries in the source; they are usually repeats but may differ in a detail not shown here. Identical values can stand only once.

Among the targets are CDK5 (Homo sapiens, UniProt Q00535); CLK1 (Homo sapiens, UniProt P49759); DDR1 (Homo sapiens, UniProt Q08345); MARK2 (Homo sapiens, UniProt Q7KZI7); PIP5K3 (Homo sapiens, UniProt Q9Y2I7); SLK (Homo sapiens, UniProt Q9H2G2); WEE1 (Homo sapiens, UniProt P30291).
What all share (experiment): biochemical
A further test addresses T1, EPHB6 (Homo sapiens, UniProt O15197).
T1 sequence (O15197 1-1021): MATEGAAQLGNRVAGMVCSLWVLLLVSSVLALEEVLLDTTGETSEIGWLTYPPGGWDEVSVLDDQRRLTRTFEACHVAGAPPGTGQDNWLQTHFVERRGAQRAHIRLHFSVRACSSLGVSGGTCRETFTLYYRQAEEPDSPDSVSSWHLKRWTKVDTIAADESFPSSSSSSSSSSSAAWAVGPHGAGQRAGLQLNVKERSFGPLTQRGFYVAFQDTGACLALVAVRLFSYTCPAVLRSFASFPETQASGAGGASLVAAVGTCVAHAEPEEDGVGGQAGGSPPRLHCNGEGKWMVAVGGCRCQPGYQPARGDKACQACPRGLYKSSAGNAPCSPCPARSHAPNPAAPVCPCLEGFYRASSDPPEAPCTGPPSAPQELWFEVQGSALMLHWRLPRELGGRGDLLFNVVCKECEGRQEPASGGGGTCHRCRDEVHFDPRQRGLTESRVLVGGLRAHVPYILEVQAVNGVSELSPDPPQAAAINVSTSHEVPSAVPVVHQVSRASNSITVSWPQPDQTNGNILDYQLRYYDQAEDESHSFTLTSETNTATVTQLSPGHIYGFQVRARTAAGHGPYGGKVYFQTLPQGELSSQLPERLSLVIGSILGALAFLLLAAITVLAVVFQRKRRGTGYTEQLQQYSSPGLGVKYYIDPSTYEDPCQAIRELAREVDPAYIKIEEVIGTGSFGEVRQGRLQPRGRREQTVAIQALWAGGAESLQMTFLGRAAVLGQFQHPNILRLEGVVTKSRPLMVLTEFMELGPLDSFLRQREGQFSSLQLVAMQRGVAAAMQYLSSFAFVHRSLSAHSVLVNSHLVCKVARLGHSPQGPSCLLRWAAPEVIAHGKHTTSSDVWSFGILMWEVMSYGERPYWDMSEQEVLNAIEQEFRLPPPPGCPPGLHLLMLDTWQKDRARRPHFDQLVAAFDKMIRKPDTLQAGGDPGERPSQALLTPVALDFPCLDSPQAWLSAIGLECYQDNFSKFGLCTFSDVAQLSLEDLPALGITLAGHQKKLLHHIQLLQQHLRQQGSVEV

In a further test the target is T2, MERTK (Homo sapiens, UniProt Q12866).
T2 sequence (Q12866 1-999): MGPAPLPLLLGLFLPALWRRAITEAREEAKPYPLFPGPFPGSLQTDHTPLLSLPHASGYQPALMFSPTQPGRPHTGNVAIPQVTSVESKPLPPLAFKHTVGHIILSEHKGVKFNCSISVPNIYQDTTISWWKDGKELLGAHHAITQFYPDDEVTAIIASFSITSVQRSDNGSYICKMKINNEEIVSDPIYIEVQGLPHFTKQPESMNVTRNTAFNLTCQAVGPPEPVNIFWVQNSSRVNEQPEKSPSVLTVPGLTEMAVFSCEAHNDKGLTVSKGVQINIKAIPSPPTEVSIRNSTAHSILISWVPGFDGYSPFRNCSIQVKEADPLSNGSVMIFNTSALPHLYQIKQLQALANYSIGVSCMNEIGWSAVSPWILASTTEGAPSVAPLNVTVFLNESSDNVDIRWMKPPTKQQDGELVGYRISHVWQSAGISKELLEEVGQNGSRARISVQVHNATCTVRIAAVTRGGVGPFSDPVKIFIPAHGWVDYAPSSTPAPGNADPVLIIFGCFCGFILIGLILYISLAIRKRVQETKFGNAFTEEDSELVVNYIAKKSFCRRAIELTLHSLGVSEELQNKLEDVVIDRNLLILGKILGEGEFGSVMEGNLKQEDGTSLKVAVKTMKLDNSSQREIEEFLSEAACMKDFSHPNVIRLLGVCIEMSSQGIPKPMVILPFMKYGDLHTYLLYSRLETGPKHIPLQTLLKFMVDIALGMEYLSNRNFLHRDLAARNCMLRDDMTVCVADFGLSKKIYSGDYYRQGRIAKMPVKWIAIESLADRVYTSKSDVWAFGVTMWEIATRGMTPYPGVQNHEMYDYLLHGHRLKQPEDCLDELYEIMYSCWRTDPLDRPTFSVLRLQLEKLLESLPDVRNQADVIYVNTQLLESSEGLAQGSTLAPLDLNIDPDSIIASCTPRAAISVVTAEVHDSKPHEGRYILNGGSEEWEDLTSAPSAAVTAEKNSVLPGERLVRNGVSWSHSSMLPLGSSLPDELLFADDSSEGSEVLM

Another test has as its target T3, PKMYT1 (Homo sapiens, UniProt Q99640).
T3 sequence (Q99640 1-499): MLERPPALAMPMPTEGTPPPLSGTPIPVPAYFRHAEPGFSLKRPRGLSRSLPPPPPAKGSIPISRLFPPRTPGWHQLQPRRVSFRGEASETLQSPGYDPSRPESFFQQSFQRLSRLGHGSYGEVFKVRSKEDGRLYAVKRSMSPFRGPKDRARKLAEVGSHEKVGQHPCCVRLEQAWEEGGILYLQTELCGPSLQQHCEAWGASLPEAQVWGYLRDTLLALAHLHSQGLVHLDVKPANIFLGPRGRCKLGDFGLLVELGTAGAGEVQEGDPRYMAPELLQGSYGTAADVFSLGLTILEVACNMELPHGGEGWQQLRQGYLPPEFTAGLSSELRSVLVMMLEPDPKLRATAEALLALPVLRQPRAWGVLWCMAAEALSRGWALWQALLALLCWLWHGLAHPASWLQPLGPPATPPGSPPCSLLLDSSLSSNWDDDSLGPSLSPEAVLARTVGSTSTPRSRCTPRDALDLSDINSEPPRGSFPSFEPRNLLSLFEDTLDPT

Sequence of WEE1 (P30291 whole entry): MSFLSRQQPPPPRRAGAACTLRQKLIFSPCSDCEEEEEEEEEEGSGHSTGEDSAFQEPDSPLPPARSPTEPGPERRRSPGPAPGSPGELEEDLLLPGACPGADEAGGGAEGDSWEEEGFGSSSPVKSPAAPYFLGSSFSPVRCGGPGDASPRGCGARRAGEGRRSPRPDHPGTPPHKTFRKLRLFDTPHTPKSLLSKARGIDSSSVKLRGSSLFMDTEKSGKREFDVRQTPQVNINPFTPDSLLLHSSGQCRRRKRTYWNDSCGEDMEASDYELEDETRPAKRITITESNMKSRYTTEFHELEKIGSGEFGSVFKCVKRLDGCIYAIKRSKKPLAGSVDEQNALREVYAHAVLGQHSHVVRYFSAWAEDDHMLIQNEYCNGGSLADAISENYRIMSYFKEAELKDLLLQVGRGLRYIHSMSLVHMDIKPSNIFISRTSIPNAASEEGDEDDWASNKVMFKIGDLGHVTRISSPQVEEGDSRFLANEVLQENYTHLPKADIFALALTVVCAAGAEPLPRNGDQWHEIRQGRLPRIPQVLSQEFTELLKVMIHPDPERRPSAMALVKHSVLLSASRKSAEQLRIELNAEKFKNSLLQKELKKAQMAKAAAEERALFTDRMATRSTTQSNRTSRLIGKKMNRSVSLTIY
Sequence of DDR1 (Q08345 whole entry): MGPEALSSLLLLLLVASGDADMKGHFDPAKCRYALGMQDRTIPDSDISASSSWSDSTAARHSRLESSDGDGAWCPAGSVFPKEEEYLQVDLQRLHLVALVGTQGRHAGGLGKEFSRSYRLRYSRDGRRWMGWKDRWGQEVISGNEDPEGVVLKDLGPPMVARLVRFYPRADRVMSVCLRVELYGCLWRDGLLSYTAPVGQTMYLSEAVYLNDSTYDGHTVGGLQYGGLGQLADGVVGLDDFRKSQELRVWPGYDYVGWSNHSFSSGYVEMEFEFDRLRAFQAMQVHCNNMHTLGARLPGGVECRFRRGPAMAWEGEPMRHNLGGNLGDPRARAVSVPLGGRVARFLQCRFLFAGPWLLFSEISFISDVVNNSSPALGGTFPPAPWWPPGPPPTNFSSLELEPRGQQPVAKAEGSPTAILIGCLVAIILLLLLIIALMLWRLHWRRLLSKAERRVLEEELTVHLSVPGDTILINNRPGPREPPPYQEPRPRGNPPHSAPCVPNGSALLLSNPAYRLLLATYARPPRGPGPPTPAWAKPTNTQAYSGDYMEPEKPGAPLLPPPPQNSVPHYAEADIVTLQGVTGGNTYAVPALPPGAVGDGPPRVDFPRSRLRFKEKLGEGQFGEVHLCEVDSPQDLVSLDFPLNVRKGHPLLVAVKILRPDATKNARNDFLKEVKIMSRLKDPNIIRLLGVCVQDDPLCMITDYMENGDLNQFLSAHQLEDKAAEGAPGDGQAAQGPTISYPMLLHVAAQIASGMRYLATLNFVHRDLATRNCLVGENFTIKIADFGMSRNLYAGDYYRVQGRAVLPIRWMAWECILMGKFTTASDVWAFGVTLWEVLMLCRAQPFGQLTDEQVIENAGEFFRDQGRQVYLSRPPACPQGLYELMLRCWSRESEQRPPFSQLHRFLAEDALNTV
Sequence of SLK (Q9H2G2 whole entry): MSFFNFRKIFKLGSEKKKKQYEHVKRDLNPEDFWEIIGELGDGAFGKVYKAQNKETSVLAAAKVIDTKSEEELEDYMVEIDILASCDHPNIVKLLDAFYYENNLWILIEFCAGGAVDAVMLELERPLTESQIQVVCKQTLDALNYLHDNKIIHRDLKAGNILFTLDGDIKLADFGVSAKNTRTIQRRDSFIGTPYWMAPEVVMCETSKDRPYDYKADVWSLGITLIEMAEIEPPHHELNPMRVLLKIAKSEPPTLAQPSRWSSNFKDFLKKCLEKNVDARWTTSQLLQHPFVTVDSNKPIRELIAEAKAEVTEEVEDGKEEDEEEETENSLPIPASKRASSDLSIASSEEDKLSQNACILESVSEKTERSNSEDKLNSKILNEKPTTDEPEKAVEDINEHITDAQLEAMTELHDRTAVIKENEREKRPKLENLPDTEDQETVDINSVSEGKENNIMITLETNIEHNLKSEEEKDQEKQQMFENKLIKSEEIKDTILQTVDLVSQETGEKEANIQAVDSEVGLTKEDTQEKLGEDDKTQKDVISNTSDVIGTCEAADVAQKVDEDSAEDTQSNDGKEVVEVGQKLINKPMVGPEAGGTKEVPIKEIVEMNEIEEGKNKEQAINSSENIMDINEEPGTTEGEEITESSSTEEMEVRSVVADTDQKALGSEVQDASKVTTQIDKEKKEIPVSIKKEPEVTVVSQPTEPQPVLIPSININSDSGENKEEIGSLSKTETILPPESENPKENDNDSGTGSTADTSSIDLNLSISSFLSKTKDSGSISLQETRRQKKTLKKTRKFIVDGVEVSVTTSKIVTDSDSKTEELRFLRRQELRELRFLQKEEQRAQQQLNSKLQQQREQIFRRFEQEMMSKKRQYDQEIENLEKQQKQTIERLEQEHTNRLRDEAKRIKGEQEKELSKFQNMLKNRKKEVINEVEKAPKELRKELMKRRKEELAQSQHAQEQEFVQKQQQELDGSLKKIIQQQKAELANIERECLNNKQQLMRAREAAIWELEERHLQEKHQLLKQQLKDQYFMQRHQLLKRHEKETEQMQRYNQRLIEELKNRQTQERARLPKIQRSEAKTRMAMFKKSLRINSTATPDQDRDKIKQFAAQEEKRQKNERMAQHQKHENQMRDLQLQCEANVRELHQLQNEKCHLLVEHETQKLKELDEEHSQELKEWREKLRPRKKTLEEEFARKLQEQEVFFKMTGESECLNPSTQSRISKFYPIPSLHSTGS
Sequence of CLK1 (P49759 whole entry): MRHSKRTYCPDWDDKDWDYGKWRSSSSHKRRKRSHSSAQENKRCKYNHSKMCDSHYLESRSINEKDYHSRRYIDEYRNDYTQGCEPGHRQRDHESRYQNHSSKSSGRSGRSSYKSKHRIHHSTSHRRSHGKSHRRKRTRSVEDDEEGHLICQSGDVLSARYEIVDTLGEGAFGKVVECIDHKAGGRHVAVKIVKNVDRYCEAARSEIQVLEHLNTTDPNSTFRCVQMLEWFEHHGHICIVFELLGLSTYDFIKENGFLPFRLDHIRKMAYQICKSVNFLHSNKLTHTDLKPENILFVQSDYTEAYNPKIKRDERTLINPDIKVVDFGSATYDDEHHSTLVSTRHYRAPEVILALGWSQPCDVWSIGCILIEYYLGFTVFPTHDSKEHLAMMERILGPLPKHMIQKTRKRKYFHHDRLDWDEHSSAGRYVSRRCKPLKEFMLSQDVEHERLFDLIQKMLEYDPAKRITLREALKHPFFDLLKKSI
Sequence of MARK2 (Q7KZI7 whole entry): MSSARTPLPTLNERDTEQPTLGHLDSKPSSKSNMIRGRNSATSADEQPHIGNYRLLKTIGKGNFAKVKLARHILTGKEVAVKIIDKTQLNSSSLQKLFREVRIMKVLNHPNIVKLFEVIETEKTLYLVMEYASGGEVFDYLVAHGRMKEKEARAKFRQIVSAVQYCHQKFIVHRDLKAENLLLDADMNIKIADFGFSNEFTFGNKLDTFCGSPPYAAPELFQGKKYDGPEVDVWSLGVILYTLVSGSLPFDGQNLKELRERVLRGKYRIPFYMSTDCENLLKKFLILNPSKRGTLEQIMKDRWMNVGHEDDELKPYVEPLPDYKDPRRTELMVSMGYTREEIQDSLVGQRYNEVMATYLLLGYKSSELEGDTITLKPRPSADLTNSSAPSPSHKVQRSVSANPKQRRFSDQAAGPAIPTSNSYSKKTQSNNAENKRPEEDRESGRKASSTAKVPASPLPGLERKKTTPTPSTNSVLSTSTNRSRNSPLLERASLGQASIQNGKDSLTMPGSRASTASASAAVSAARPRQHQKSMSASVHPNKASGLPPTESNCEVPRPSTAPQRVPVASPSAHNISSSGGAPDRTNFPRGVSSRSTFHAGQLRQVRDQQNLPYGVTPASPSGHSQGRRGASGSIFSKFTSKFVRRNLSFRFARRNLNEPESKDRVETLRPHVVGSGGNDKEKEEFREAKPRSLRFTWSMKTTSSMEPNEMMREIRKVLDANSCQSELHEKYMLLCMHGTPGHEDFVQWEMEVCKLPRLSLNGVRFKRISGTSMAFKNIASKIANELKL
Sequence of CDK5 (Q00535 whole entry): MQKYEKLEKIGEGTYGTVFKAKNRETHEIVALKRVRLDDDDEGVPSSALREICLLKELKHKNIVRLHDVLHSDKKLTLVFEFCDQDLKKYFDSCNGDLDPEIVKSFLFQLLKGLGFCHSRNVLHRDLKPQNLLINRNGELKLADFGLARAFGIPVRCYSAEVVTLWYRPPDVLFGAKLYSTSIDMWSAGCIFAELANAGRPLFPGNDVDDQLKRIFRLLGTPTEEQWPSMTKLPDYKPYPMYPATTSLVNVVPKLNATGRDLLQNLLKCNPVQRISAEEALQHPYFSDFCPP

As for `CN1CCN(c2ccc(Nc3ncc(C#N)c(Nc4ccccc4C(N)=O)n3)cc2)CC1.Cl` [TCMDC-134116], the negative-log IC50 (pIC50) on CDK5 is 7.17 and 6.96; against CLK1, 7.33 and 7.32; against DDR1, 6.22 and 6.31; on EPHB6, below 4.70; on MARK2, 6.66 and 6.68; against MERTK it was 6.20. In addition, the negative logarithm of the IC50 (pIC50) at PIP5K3 was 5.89 and 5.82; against PKMYT1, 5.85 and 6.03; against SLK it was 7.32 and 7.24; against WEE1, 7.32 and 7.33.
With `Cl.NCC1(c2nc(-c3ccc(Cl)c(O)c3)c(-c3ccncc3)[nH]2)CCCCC1` [TCMDC-141154], the pIC50 on CDK5 is below 4.70; against CLK1 it was below 4.70; against DDR1, 5.74; against EPHB6, below 4.70; against MARK2, below 4.70; at MERTK, 5.03. Besides, the pIC50 is 6.00 at PIP5K3, below 4.70 on PKMYT1, at least 7.49 against SLK and below 4.70 against WEE1.
For `CN(C)CC(O)COc1ccc(Nc2ncc([N+](=O)[O-])c(Nc3ccccc3O)n2)cc1.O=C(O)C(F)(F)F` (stereo not drawn) [TCMDC-141399], the pIC50 at CDK5 was below 4.70; against CLK1, 6.41 and 6.57; at DDR1, 4.96; against EPHB6 it was below 4.70; at MARK2, 5.19; against MERTK it was 5.96. The pIC50 is 5.12 and 5.28 against PIP5K3; below 4.70 against PKMYT1; 6.05 and 6.00 on SLK; 6.24 against WEE1.
